For test [1], the target named is Cathepsin B (Homo sapiens, UniProt P07858). In words: Cathepsin B activity assay (z-RR-AMC). In kind it is biochemical. The settings on record: 36 μM z-RR-AMC, 3.6 nM enzyme, 30 min pre-incubation, 60 min at 37° C., sigmoidal fit; read-out: cathepB (inhibition of cysteine protease activity). As for the experimental part:
Cathepsin B was diluted in Cathepsin B buffer (20 mM Tris HCl pH 6.8; 1 mM EDTA; 1 mM DTT). Compounds stocks (100 mM) were stored at −20° C. in DMSO. Compounds were tested at the following final concentrations: 100 μM; 33.3 μM; 11.1 μM; 3.7 μM; 1.23 μM; 412 nM; 137 nM; 45.7 nM; 15.2 nM; 5 nM. Reactions were performed as duplicates in Black LJL 96 well plates (HE microplates; Molecular Devices; 20 μl final reaction volume). The substrate concentration for cathepsin B specificity assay was 36 μM (z-RR-AMC; Calbiochem). The concentration of the enzyme (Cathepsin B) in specificity assays was 3.6 nM. The concentrations were determined in order to perform specificity assays under initial velocities at fixed substrate concentration. Compounds were pre-incubated with enzymes for 30 minutes at 25° C. Reactions were initiated by addition of substrate to the plates containing the enzymes (+/−compounds) diluted in assay buffer. Reactions were incubated for 60 minutes at 37° C. Reactions were stopped by adding acetic acid (100 mM final). Readings were performed on a Pherastar Fluorescent Reader (BMG). δ Emission 380 nm; δ Excitation=460 nm. Data (mean values +/−standard deviation) were analyzed as % of control (no compound) and plotted as percentage versus the Log of the compound concentration using GraphPad (Prism). Data were fitted to a sigmoidal model (variable slope).

Test [2] concerns the target T1, USP5 (Homo sapiens, UniProt P45974).
T1 sequence (P45974 1-858): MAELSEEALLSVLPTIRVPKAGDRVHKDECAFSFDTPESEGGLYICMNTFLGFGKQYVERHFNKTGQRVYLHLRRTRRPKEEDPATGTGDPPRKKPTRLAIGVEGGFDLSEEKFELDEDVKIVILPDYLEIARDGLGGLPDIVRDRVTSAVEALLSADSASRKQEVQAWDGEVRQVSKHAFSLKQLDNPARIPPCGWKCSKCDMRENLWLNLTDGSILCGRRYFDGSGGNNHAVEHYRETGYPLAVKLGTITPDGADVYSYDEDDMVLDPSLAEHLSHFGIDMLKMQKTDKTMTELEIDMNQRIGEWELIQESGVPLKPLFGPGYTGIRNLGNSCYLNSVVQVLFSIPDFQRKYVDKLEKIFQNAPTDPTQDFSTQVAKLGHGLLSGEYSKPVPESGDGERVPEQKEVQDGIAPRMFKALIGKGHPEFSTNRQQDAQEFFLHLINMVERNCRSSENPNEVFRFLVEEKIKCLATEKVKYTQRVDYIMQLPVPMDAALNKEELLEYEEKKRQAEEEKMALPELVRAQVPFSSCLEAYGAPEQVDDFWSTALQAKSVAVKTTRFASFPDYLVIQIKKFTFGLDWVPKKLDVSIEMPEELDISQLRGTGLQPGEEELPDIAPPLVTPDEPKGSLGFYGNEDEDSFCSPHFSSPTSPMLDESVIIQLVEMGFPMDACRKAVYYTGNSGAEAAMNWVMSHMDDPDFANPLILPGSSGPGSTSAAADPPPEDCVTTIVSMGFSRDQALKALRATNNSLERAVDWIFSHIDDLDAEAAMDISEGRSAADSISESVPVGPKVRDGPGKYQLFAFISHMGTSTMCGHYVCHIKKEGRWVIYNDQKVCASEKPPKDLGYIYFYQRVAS
The test is described as follows: USP5 activity assay (Ub-AMC). Type of test: biochemical. The settings on record: 400 nM Ub-AMC, 300 pM enzyme, 30 min pre-incubation, 60 min at 37° C., sigmoidal fit; read-out: USP5 (inhibition of cysteine protease activity). The procedure: USP5 was diluted in USP buffer (50 mM Tris HCl; 0.5 mM EDTA; 5 mM DTT; 0.01% Triton X-100; Bovine Serum Albumin 0.05 mg.ml^−1 pH7.6). Compounds stocks (100 mM) were stored at −20° C. in DMSO.
Reactions were performed as duplicates in Black LJL 96 well plates (HE microplates; Molecular Devices; 20 μl final reaction volume). The substrate concentration for USP5 was 400 nM Ub-AMC (Boston Biochem). The concentrations of the enzyme (USP5) in specificity assays was 300 pM. The concentrations were determined in order to perform specificity assays under initial velocities at fixed substrate concentration. Compounds were pre-incubated with enzymes for 30 minutes at 25° C. Reactions were initiated by addition of substrate to the plates containing the enzymes (+/−compounds) diluted in assay buffer. Reactions were incubated for 60 minutes at 37° C. Reactions were stopped by adding acetic acid (100 mM final). Readings were performed on a Pherastar Fluorescent Reader (BMG). λ Emission 380 nm; λ Excitation=460 nm. Data (mean values +/−standard deviation) were analyzed as % of control (no compound) and plotted as percentage versus the Log of the compound concentration using GraphPad (Prism). Data were fitted to a sigmoidal model (variable slope).

In patent US20100048575A1, “NOVEL TETRACYCLIC INHIBITORS OF CYSTEINE PROTEASES, THE PHARMACEUTICAL COMPOSITIONS THEREOF AND THEIR THERAPEUTIC APPLICATIONS” (priority 2006, published 2010) one finds IC50 data, which are given here for 9 molecules.

In the case of `ON=C1c2ccccc2-c2nn3nnnc3nc21` (mixture of isomers) [compound 7, 1,2,3,3a,4,10-hexaaza-cyclopenta[b]fluoren-9-one oxime], the IC50 in test [1] was 0.89 µM.

`CON=C1c2ccccc2-c2nn3c(C)nnc3nc21` (mixture of isomers) [5a, 3-Methyl-1,2,3a,4,10-pentaaza-cyclopenta[b]fluoren-9-one O-methyl-oxime]: the IC50 came out at 2.6 µM in test [1] and 1.8 µM in test [2].

`C=CCON=C1c2ccccc2-c2nn3nnnc3nc21` (mixture of isomers) [compound 6, 1,2,3,3a,4,10-hexaaza-cyclopenta[b]fluoren-9-one O-allyl-oxime]: the IC50 in test [1] is 0.3 µM.

As for `C=CCON=C1c2ccccc2-c2nn3c(CC)nnc3nc21` (mixture of isomers) [10f, 3-Ethyl-1,2,3a,4,10-pentaaza-cyclopenta[b]fluoren-9-one O-allyl-oxime], in test [2], the IC50 amounted to 1.2 µM.

For `COCCON=C1c2ccccc2-c2nn3nnnc3nc21` (mixture of isomers) [8b, 1,2,3,3a, 4,10-Hexaaza-cyclopenta[b]fluoren-9-one O-(2-methoxy-ethyl)-oxime], the IC50 in test [1] stood at 2.1 µM.

In the case of `C=CCON=C1c2ccccc2-c2nn3c(CCCC)nnc3nc21` (mixture of isomers) [5d, 3-Butyl-1,2,3a,4,10-pentaaza-cyclopenta[b]fluoren-9-one O-allyl-oxime], the IC50 in test [1] was 6.7 µM; in test [2], 1.42 µM.

For `C=CCON=C1c2ccccc2-c2nn3c(C)nnc3nc21` (mixture of isomers) [5b, 3-Methyl-1,2,3a,4,10-pentaaza-cyclopenta[b]fluoren-9-one O-allyl-oxime], the IC50 in test [2] was determined as 1.15 µM.

In the case of `c1ccc(OCCCON=C2c3ccccc3-c3nn4nnnc4nc32)cc1` (mixture of isomers) [8c, 1,2,3,3a,4,10-Hexaaza-cyclopenta[b]fluoren-9-one O-(3-phenoxy-propyl)-oxime], the IC50 was determined as 3.8 µM in test [1] and 0.47 µM in test [2].

For the molecule `CCCCCCCCCCON=C1c2ccccc2-c2nn3nnnc3nc21` (mixture of isomers) [8a, 1,2,3,3a, 4,10-Hexaaza-cyclopenta[b]fluoren-9-one O-decyl-oxime], the IC50 in test [1] is 15.8 µM; in test [2], 54 µM.
